# In US20110071108A1, “Beta-Cyclodextrin Derivatives as Antibacterial Agents” (Pinnacle Pharmaceuticals, Inc., priority 2005, published 2011):
# Key:
# Enterococcus faecium = test: Bacterial panel testing, MIC by broth microdilution; assay type: cell-based; conditions: 20-24 hours growth
# How it was run: (§1)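 Read-out: clear (no-growth) wells scored after 20-24 h growth to define compound potency. Inoculum was McFarland-matched bacteria from 2-4 h cultures at 37° C in strain-appropriate Mueller-Hinton or Brain Heart infusion media. Compound (10 μg/ml DMSO stock) was serially diluted twofold across plate columns.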
# Salmonella choleraesuis = test: as above; assay type: cell-based; conditions: 20-24 hours growth
# How it was run: as §1
# Staphylococcus aureus = test: as above; assay type: cell-based; conditions: 20-24 hours growth
# How it was run: as §1
# Lungs cancer cells A549 = test: Mammalian cytotoxicity
# Pseudomonas aeruginosa = test: Bacterial panel testing, MIC by broth microdilution; assay type: cell-based; conditions: 20-24 hours growth
# How it was run: as §1
# Eschericia coli = test: as above; assay type: cell-based; conditions: 20-24 hours growth
# How it was run: as §1
# Bacillus atrophaeus = test: as above; assay type: cell-based; conditions: 20-24 hours growth
# How it was run: as §1
smiles,measurement,setting,value
NC[C@H]1O[C@@H]2O[C@H]3[C@H](O)[C@@H](O)[C@@H](O[C@H]4[C@H](O)[C@@H](O)[C@@H](O[C@H]5[C@H](O)[C@@H](O)[C@@H](O[C@H]6[C@H](O)[C@@H](O)[C@@H](O[C@H]7[C@H](O)[C@@H](O)[C@@H](O[C@H]8[C@H](O)[C@@H](O)[C@@H](O[C@H]1[C@H](O)[C@H]2O)O[C@@H]8CN)O[C@@H]7CN)O[C@@H]6CN)O[C@@H]5CN)O[C@@H]4CN)O[C@@H]3CN,MIC EF,Enterococcus faecium,>200 µg/mL
same,MIC SC,Salmonella choleraesuis,>200 µg/mL
same,MIC SA,Staphylococcus aureus,>200 µg/mL
same,Mammalian Cytotoxicity IC50,Lungs cancer cells A549,720 µg/mL
NCC(=O)NC[C@H]1O[C@@H]2O[C@H]3[C@H](O)[C@@H](O)[C@@H](O[C@H]4[C@H](O)[C@@H](O)[C@@H](O[C@H]5[C@H](O)[C@@H](O)[C@@H](O[C@H]6[C@H](O)[C@@H](O)[C@@H](O[C@H]7[C@H](O)[C@@H](O)[C@@H](O[C@H]8[C@H](O)[C@@H](O)[C@@H](O[C@H]1[C@H](O)[C@H]2O)O[C@@H]8CNC(=O)CN)O[C@@H]7CNC(=O)CN)O[C@@H]6CNC(=O)CN)O[C@@H]5CNC(=O)CN)O[C@@H]4CNC(=O)CN)O[C@@H]3CNC(=O)CN,MIC PA,Pseudomonas aeruginosa,>200 µg/mL
same,MIC EF,Enterococcus faecium,>200 µg/mL
same,MIC EC,Eschericia coli,>200 µg/mL
same,MIC SC,Salmonella choleraesuis,>200 µg/mL
same,MIC SA,Staphylococcus aureus,>200 µg/mL
same,Mammalian Cytotoxicity IC50,Lungs cancer cells A549,690 µg/mL
CC(C)C[C@H](N)C(=O)NC[C@H]1O[C@@H]2O[C@H]3[C@H](O)[C@@H](O)[C@@H](O[C@H]4[C@H](O)[C@@H](O)[C@@H](O[C@H]5[C@H](O)[C@@H](O)[C@@H](O[C@H]6[C@H](O)[C@@H](O)[C@@H](O[C@H]7[C@H](O)[C@@H](O)[C@@H](O[C@H]8[C@H](O)[C@@H](O)[C@@H](O[C@H]1[C@H](O)[C@H]2O)O[C@@H]8CNC(=O)[C@@H](N)CC(C)C)O[C@@H]7CNC(=O)[C@@H](N)CC(C)C)O[C@@H]6CNC(=O)[C@@H](N)CC(C)C)O[C@@H]5CNC(=O)[C@@H](N)CC(C)C)O[C@@H]4CNC(=O)[C@@H](N)CC(C)C)O[C@@H]3CNC(=O)[C@@H](N)CC(C)C,MIC PA,Pseudomonas aeruginosa,>200 µg/mL
same,MIC EF,Enterococcus faecium,>200 µg/mL
same,MIC EC,Eschericia coli,>200 µg/mL
same,MIC SC,Salmonella choleraesuis,>200 µg/mL
same,MIC SA,Staphylococcus aureus,>200 µg/mL
same,Mammalian Cytotoxicity IC50,Lungs cancer cells A549,215 µg/mL
N[C@@H](Cc1ccccc1)C(=O)NC[C@H]1O[C@@H]2O[C@H]3[C@H](O)[C@@H](O)[C@@H](O[C@H]4[C@H](O)[C@@H](O)[C@@H](O[C@H]5[C@H](O)[C@@H](O)[C@@H](O[C@H]6[C@H](O)[C@@H](O)[C@@H](O[C@H]7[C@H](O)[C@@H](O)[C@@H](O[C@H]8[C@H](O)[C@@H](O)[C@@H](O[C@H]1[C@H](O)[C@H]2O)O[C@@H]8CNC(=O)[C@@H](N)Cc1ccccc1)O[C@@H]7CNC(=O)[C@@H](N)Cc1ccccc1)O[C@@H]6CNC(=O)[C@@H](N)Cc1ccccc1)O[C@@H]5CNC(=O)[C@@H](N)Cc1ccccc1)O[C@@H]4CNC(=O)[C@@H](N)Cc1ccccc1)O[C@@H]3CNC(=O)[C@@H](N)Cc1ccccc1,MIC PA,Pseudomonas aeruginosa,>200 µg/mL
same,MIC EF,Enterococcus faecium,>200 µg/mL
same,MIC EC,Eschericia coli,>200 µg/mL
same,MIC SC,Salmonella choleraesuis,>200 µg/mL
same,MIC SA,Staphylococcus aureus,>200 µg/mL
same,Mammalian Cytotoxicity IC50,Lungs cancer cells A549,>2000 µg/mL
N=C(N)NCCSC[C@H]1O[C@@H]2O[C@H]3[C@H](O)[C@@H](O)[C@@H](O[C@H]4[C@H](O)[C@@H](O)[C@@H](O[C@H]5[C@H](O)[C@@H](O)[C@@H](O[C@H]6[C@H](O)[C@@H](O)[C@@H](O[C@H]7[C@H](O)[C@@H](O)[C@@H](O[C@H]8[C@H](O)[C@@H](O)[C@@H](O[C@H]1[C@H](O)[C@H]2O)O[C@@H]8CSCCNC(=N)N)O[C@@H]7CSCCNC(=N)N)O[C@@H]6CSCCNC(=N)N)O[C@@H]5CSCCNC(=N)N)O[C@@H]4CSCCNC(=N)N)O[C@@H]3CSCCNC(=N)N,MIC PA,Pseudomonas aeruginosa,>200 µg/mL
same,MIC EF,Enterococcus faecium,>200 µg/mL
same,MIC EC,Eschericia coli,>200 µg/mL
same,MIC SC,Salmonella choleraesuis,>200 µg/mL
same,MIC SA,Staphylococcus aureus,>200 µg/mL
same,Mammalian Cytotoxicity IC50,Lungs cancer cells A549,510 µg/mL
NCCCCC(=O)NC[C@H]1O[C@@H]2O[C@H]3[C@H](O)[C@@H](O)[C@@H](O[C@H]4[C@H](O)[C@@H](O)[C@@H](O[C@H]5[C@H](O)[C@@H](O)[C@@H](O[C@H]6[C@H](O)[C@@H](O)[C@@H](O[C@H]7[C@H](O)[C@@H](O)[C@@H](O[C@H]8[C@H](O)[C@@H](O)[C@@H](O[C@H]1[C@H](O)[C@H]2O)O[C@@H]8CNC(=O)CCCCN)O[C@@H]7CNC(=O)CCCCN)O[C@@H]6CNC(=O)CCCCN)O[C@@H]5CNC(=O)CCCCN)O[C@@H]4CNC(=O)CCCCN)O[C@@H]3CNC(=O)CCCCN,MIC PA,Pseudomonas aeruginosa,>200 µg/mL
same,MIC EF,Enterococcus faecium,>200 µg/mL
same,MIC EC,Eschericia coli,>200 µg/mL
same,MIC SC,Salmonella choleraesuis,>200 µg/mL
same,MIC SA,Staphylococcus aureus,>200 µg/mL
same,Mammalian Cytotoxicity IC50,Lungs cancer cells A549,755 µg/mL
NCCCCCC(=O)NC[C@H]1O[C@@H]2O[C@H]3[C@H](O)[C@@H](O)[C@@H](O[C@H]4[C@H](O)[C@@H](O)[C@@H](O[C@H]5[C@H](O)[C@@H](O)[C@@H](O[C@H]6[C@H](O)[C@@H](O)[C@@H](O[C@H]7[C@H](O)[C@@H](O)[C@@H](O[C@H]8[C@H](O)[C@@H](O)[C@@H](O[C@H]1[C@H](O)[C@H]2O)O[C@@H]8CNC(=O)CCCCCN)O[C@@H]7CNC(=O)CCCCCN)O[C@@H]6CNC(=O)CCCCCN)O[C@@H]5CNC(=O)CCCCCN)O[C@@H]4CNC(=O)CCCCCN)O[C@@H]3CNC(=O)CCCCCN,MIC PA,Pseudomonas aeruginosa,>200 µg/mL
same,MIC EF,Enterococcus faecium,>200 µg/mL
same,MIC EC,Eschericia coli,>200 µg/mL
same,MIC SC,Salmonella choleraesuis,>200 µg/mL
same,Mammalian Cytotoxicity IC50,Lungs cancer cells A549,780 µg/mL
CC(C)(C)OC(=O)N[C@@H](Cc1ccccc1)C(=O)NC[C@H]1O[C@@H]2O[C@H]3[C@H](O)[C@@H](O)[C@@H](O[C@H]4[C@H](O)[C@@H](O)[C@@H](O[C@H]5[C@H](O)[C@@H](O)[C@@H](O[C@H]6[C@H](O)[C@@H](O)[C@@H](O[C@H]7[C@H](O)[C@@H](O)[C@@H](O[C@H]8[C@H](O)[C@@H](O)[C@@H](O[C@H]1[C@H](O)[C@H]2O)O[C@@H]8CNC(=O)[C@H](Cc1ccccc1)NC(=O)OC(C)(C)C)O[C@@H]7CNC(=O)[C@H](Cc1ccccc1)NC(=O)OC(C)(C)C)O[C@@H]6CNC(=O)[C@H](Cc1ccccc1)NC(=O)OC(C)(C)C)O[C@@H]5CNC(=O)[C@H](Cc1ccccc1)NC(=O)OC(C)(C)C)O[C@@H]4CNC(=O)[C@H](Cc1ccccc1)NC(=O)OC(C)(C)C)O[C@@H]3CNC(=O)[C@H](Cc1ccccc1)NC(=O)OC(C)(C)C,MIC PA,Pseudomonas aeruginosa,>200 µg/mL
same,MIC BA,Bacillus atrophaeus,>200 µg/mL
same,MIC EF,Enterococcus faecium,>200 µg/mL
same,MIC EC,Eschericia coli,>200 µg/mL
same,MIC SC,Salmonella choleraesuis,>200 µg/mL
same,MIC SA,Staphylococcus aureus,>200 µg/mL
same,Mammalian Cytotoxicity IC50,Lungs cancer cells A549,193 µg/mL
CC(C)C[C@H](NC(=O)OC(C)(C)C)C(=O)NC[C@H]1O[C@@H]2O[C@H]3[C@H](O)[C@@H](O)[C@@H](O[C@H]4[C@H](O)[C@@H](O)[C@@H](O[C@H]5[C@H](O)[C@@H](O)[C@@H](O[C@H]6[C@H](O)[C@@H](O)[C@@H](O[C@H]7[C@H](O)[C@@H](O)[C@@H](O[C@H]8[C@H](O)[C@@H](O)[C@@H](O[C@H]1[C@H](O)[C@H]2O)O[C@@H]8CNC(=O)[C@H](CC(C)C)NC(=O)OC(C)(C)C)O[C@@H]7CNC(=O)[C@H](CC(C)C)NC(=O)OC(C)(C)C)O[C@@H]6CNC(=O)[C@H](CC(C)C)NC(=O)OC(C)(C)C)O[C@@H]5CNC(=O)[C@H](CC(C)C)NC(=O)OC(C)(C)C)O[C@@H]4CNC(=O)[C@H](CC(C)C)NC(=O)OC(C)(C)C)O[C@@H]3CNC(=O)[C@H](CC(C)C)NC(=O)OC(C)(C)C,MIC PA,Pseudomonas aeruginosa,>200 µg/mL
same,MIC BA,Bacillus atrophaeus,>200 µg/mL
same,MIC EF,Enterococcus faecium,>200 µg/mL
same,MIC EC,Eschericia coli,>200 µg/mL
same,MIC SC,Salmonella choleraesuis,>200 µg/mL
same,MIC SA,Staphylococcus aureus,>200 µg/mL
same,Mammalian Cytotoxicity IC50,Lungs cancer cells A549,144 µg/mL
[N-]=[N+]=NC[C@H]1O[C@@H]2O[C@H]3[C@H](O)[C@@H](O)[C@@H](O[C@H]4[C@H](O)[C@@H](O)[C@@H](O[C@H]5[C@H](O)[C@@H](O)[C@@H](O[C@H]6[C@H](O)[C@@H](O)[C@@H](O[C@H]7[C@H](O)[C@@H](O)[C@@H](O[C@H]8[C@H](O)[C@@H](O)[C@@H](O[C@H]1[C@H](O)[C@H]2O)O[C@@H]8CN=[N+]=[N-])O[C@@H]7CN=[N+]=[N-])O[C@@H]6CN=[N+]=[N-])O[C@@H]5CN=[N+]=[N-])O[C@@H]4CN=[N+]=[N-])O[C@@H]3CN=[N+]=[N-],MIC PA,Pseudomonas aeruginosa,>200 µg/mL
same,MIC EF,Enterococcus faecium,>200 µg/mL
same,MIC EC,Eschericia coli,>200 µg/mL
same,MIC SC,Salmonella choleraesuis,>200 µg/mL
same,Mammalian Cytotoxicity IC50,Lungs cancer cells A549,2116 µg/mL
Cl.Cl.Cl.Cl.Cl.Cl.NCC1OC2OC3C(CN)OC(OC4C(CN)OC(OC5C(CN)OC(OC6C(CN)OC(OC7C(CN)OC(OC1C(O)C2O)C(O)C7O)C(O)C6O)C(O)C5O)C(O)C4O)C(O)C3O (stereo not shown),MIC BA,Bacillus atrophaeus,>200 µg/mL
same,MIC EF,Enterococcus faecium,>200 µg/mL
same,MIC EC,Eschericia coli,>200 µg/mL
same,MIC SC,Salmonella choleraesuis,>200 µg/mL
same,MIC SA,Staphylococcus aureus,>200 µg/mL
same,Mammalian Cytotoxicity IC50,Lungs cancer cells A549,109.3 µg/mL
Cl.Cl.Cl.Cl.Cl.Cl.Cl.NCc1ccc(CSCC2OC3OC4C(CSCc5ccc(CN)cc5)OC(OC5C(CSCc6ccc(CN)cc6)OC(OC6C(CSCc7ccc(CN)cc7)OC(OC7C(CSCc8ccc(CN)cc8)OC(OC8C(CSCc9ccc(CN)cc9)OC(OC9C(CSCc%10ccc(CN)cc%10)OC(OC2C(O)C3O)C(O)C9O)C(O)C8O)C(O)C7O)C(O)C6O)C(O)C5O)C(O)C4O)cc1 (stereo not shown),MIC EF,Enterococcus faecium,>200 µg/mL
same,MIC SA,Staphylococcus aureus,>200 µg/mL
same,Mammalian Cytotoxicity IC50,Lungs cancer cells A549,56.2 µg/mL
Cl.Cl.Cl.Cl.Cl.Cl.Cl.NCc1cccc(CSCC2OC3OC4C(CSCc5cccc(CN)c5)OC(OC5C(CSCc6cccc(CN)c6)OC(OC6C(CSCc7cccc(CN)c7)OC(OC7C(CSCc8cccc(CN)c8)OC(OC8C(CSCc9cccc(CN)c9)OC(OC9C(CSCc%10cccc(CN)c%10)OC(OC2C(O)C3O)C(O)C9O)C(O)C8O)C(O)C7O)C(O)C6O)C(O)C5O)C(O)C4O)c1 (stereo not shown),MIC EF,Enterococcus faecium,>200 µg/mL
same,MIC SC,Salmonella choleraesuis,>200 µg/mL
same,Mammalian Cytotoxicity IC50,Lungs cancer cells A549,54.3 µg/mL
